The term MIC denotes the lowest concentration found to suppress growth.

Experimental findings from US7629438B2, “Group of synthetic antimicrobial peptides” (priority 2002, dated 2009) are described below.

In brackets after ≈: the same amount, converted by molar mass. Like-named read-outs stand apart in the source and are kept apart here. Ends that are not written are not given here. Peptide text beside a SMILES is read from it.

Test [1] concerns Staphylococcus aureaus CMCC26003. The class given is cell-based. How it is done: (§1) The minimum inhibitory concentrations (MIC) of the invention peptides were determined using methods described below:
(§2) The strain was recovered, inoculated into sloped medium, and grown overnight at 37° C. Typical clone selected were grown overnight at 37° C. in LB culture, diluted in the same medium to give concentrations of about 10^4-10^5 CFU/ml. The broth dilutions were set up in a 96-well microtiter plate by putting 100 μl of LB-S in every well. Added diluted peptide to every well (10 ul per well), cultured overnight at 37° C. The next day, the plates were scored for growth in the wells, and the MIC determined (In Yup Park et al.; FEBS Letters; 437 (1998) 258-262).

Test [2] deals with Micrococcus lutea CMCC28001. The class given is cell-based. The protocol:
as §1, §2

Test [3] has as its system Bacillus pumilus CMCC63202. The class given is cell-based. How it is done: as §1, §2
Test [4] has as its system Klebsiella pneumoniae CMCC46117. The class given is cell-based. How it is done: as §1, §2
In test [5] the test system is Saccharomyces cerevisiae ATCC9736. It is filed as cell-based. The protocol:
as §1, §2

Test [6] has as its system Escherichia coli ATCC8099. The class given is cell-based. The protocol:
as §1, §2

Test [7] relates to Candida albicans ATCC10231. It is filed as cell-based. How it is done:
as §1, §2

The subject of test [8] is Pseudomonas aeruginosa CMCC10104. The class given is cell-based. How it is done:
as §1, §2

In test [9] the test system is Micrococcus lysoleikticus S1.634. The class given is cell-based. The protocol: as §1, §2
Test [10] has as its system S. aureus CMCC26003. The class given is in vivo, Kunming mouse. The note with it: for Inhibitory rate: S. aureus infected mice. The protocol:
The infection model was Staphylococcus aureus infection in the Kunming mouse.
S. aureus CMCC26003 was cultured overnight, with moderate agitation, in Veal Infusion broth (Difco) and diluted in broth containing 5% hog gastric mucin (Difco). Male Kunming mice weighing approximately 20 grams were infected intraperitoneally with 10^6-10^7 viable cells. There were 3 mice in each treatment group. Antimicrobial peptide GK-1 was administered intravenously (in 0.1 ml 5% dextrose for injection), within 10 minutes of infection. Vancomycin was administered subcutaneously.

Test [11] relates to K562 (human chronic myeloid leukemia cell).
Description: (§3) To determine the inhibitory activity of the peptides against tumor cells, a MTT colorimetric assay was performed. Fifty percent inhibitory concentrations of the antimicrobial peptides against tumor cells and normal fibroblasts were determined. Tumor cell K562 (human chronic myeloid leukemia cell), Bcap-37 (human breast cancer cell), QGY-7703 (human hepatocellular carcinoma cell), LOVO colon cancer cell, and mouse NIH-3T3 fibroblast were selected. These cells were provided by the College of Life Sciences, Fudan University. Cells were grown in RPMI1-1640, containing 10% inactivated calf serum. Cells were transferred into the 96-well plate at 2*10^4 cells/well, and 150 μl was added in each well. After the 96-well plate were incubated overnight at 37, in 5% carbon dioxide, 20 μl diluted peptide solution was added to each well, then incubated for 3 days, 20 μl MTT solution was added to each well, and incubated at 37° C. for 4 hours, 40 μl, 002M HCl solution containing 20% SDS was added to each well to solve the purple crystal, and incubated overnight at 37° C. The absorbance at 570 nm was determined.
For test [12], the system named is mouse NIH-3T3 fibroblast.
Description: as §3
The subject of test [13] is Bcap-37 (human breast cancer cell).
Description: as §3
Test [14] has as its system LOVO colon cancer cell.
Description: as §3
The subject of test [15] is CMCC50094. Put plainly: MIC assay, 96-well microtiter plate. The class given is cell-based. The note with it: B Subacute sclerosing panencephalitis CMCC50094 (G−). How it is done:
as §1, §2

Test [16] has as its system Bacillus subtilis DB430. Put plainly: MIC assay, 96-well microtiter plate. To be noted: Bacillus subtilis DB430 (G+). The class given is cell-based. How it is done:
as §1, §2

The subject of test [17] is QGY-7703 (human hepatocellular carcinoma cell).
Description: as §3

For `CC[C@H](C)[C@@H]1NC(=O)CNC(=O)[C@H]([C@@H](C)CC)NC(=O)[C@H](CCCCN)NC(=O)[C@H](CCCCN)NC(=O)[C@H](Cc2ccccc2)NC(=O)[C@H](CC(C)C)NC(=O)[C@H](CCCCN)NC(=O)[C@H](Cc2c[nH]c3ccccc23)NC(=O)[C@H](CCCCN)NC(=O)[C@H](CCCCN)NC(=O)[C@H](CC(C)C)NC(=O)[C@H](CC(C)C)NC(=O)[C@H](CCCCN)NC(=O)[C@H](CCCNC(=N)N)NC(=O)[C@H](CC(C)C)NC(=O)CNC(=O)[C@H](CCCNC(=N)N)NC(=O)[C@H](CCCCN)NC(=O)[C@H](CC(C)C)NC(=O)[C@H](CC(C)C)NC(=O)[C@H](CCCNC(=N)N)NC(=O)CNC1=O` [GK-20] (cyclo(KWKLFKKIGIGRLLKRGLRKLLK); ring closure inferred), the MIC in test [1] stood at 0.8 µg/mL (≈ 0.288 µM); in test [2], 4 µg/mL (≈ 1.44 µM); in [3], 6 µg/mL (≈ 2.16 µM); in test [4] it was 10 µg/mL (≈ 3.6 µM); in test [5] it was 20 µg/mL (≈ 7.21 µM); in [6], 8 µg/mL (≈ 2.88 µM). Besides, the minimal inhibitory concentration (MIC) came out at 18 µg/mL (≈ 6.49 µM) in [7], 10 µg/mL (≈ 3.6 µM) in test [8] and 2 µg/mL (≈ 0.721 µM) in [9].
`CN[C@H](CC(C)C)C(=O)N[C@H]1C(=O)N[C@@H](CC(N)=O)C(=O)N[C@H]2C(=O)N[C@H]3C(=O)N[C@H](C(=O)N[C@H](C(=O)O)c4cc(O)cc(O)c4-c4cc3ccc4O)[C@H](O)c3ccc(c(Cl)c3)Oc3cc2cc(c3O[C@@H]2O[C@H](CO)[C@@H](O)[C@H](O)[C@H]2O[C@H]2C[C@](C)(N)[C@H](O)[C@H](C)O2)Oc2ccc(cc2Cl)[C@H]1O` [Vancomycin]: the Inhibitory rate in test [10] (0.5 mg/kg s.c.) was found to be 0%; in test [10] (1.0 mg/kg s.c.), 40%; in test [10] (2.0 mg/kg s.c.), 80%; in [10] (4.0 mg/kg s.c.), 100%; in [10] (8.0 mg/kg s.c.), 100%. Besides, the “Effectiveness against S. aureus infection (protection of infected mice)” value in test [10] (dosage of 4.5 mg/kg) was found to be 100%.
For the molecule KWKLFKKIGIGRLLKRGLRKLLK [GK-1], the “inhibitory activity against tumor cells (IC50)” value (“inhibitory activity” below) in [11] came to 45 µg/mL; in test [13], 52 µg/mL; in test [14], 35 µg/mL; in test [17], 38 µg/mL. Further, in test [12], the “IC50 against normal fibroblasts” value was above 100 µg/mL. Also, the MIC in test [1] is 0.4 µg/mL; in [2] it was 2 µg/mL; in test [3], 0.5 µg/mL; in [4] it was 2 µg/mL; in test [5], 14 µg/mL; in test [6] it was 1 µg/mL. For the same molecule, the MIC came out at 8 µg/mL in [7]; 10 µg/mL in test [8]; 1.0 µg/mL in test [9]; 4 µg/mL in test [15]; 4 µg/mL in test [16].
With KWKLFKKIGIGRLLRRLLRRLLR [GK-2], the “inhibitory activity” value in test [11] came to 56 µg/mL; in test [13], 47 µg/mL; in [14] it was 32 µg/mL; in [17], 44 µg/mL. Further, in [12], the “IC50 against normal fibroblasts” value is above 100 µg/mL. In addition, the MIC in test [1] is 0.2 µg/mL; in [2] it was 4 µg/mL; in test [3] it was 1 µg/mL; in test [4] it was 0.8 µg/mL; in [5] it was 12 µg/mL; in test [6], 0.5 µg/mL. In addition, the minimum inhibitory concentration (MIC) in test [7] turned out to be 10 µg/mL; in test [8], 12 µg/mL; in test [9], 0.8 µg/mL; in test [15], 1 µg/mL; in [16] it was 4 µg/mL.
In the case of RFKLFKKIPRLLRRGLRKVLK [GK-19], the minimum inhibitory concentration (MIC) in test [1] was found to be 1.0 µg/mL; in test [2], 10 µg/mL; in [3], 10 µg/mL; in test [4], 2 µg/mL; in test [5], 12 µg/mL; in [6], 2 µg/mL. The MIC in [7] worked out at 16 µg/mL; in [8] it was 4 µg/mL; in test [9], 4 µg/mL; in test [15] it was 1 µg/mL; in test [16] it was 2 µg/mL.
For the molecule “RWKLFKKIEKVGRNVRDGLIKAGPAIAVIGQAKSL [cecropin A1, reference compound]”, the MIC worked out at 16 µg/mL in test [1]; 30 µg/mL in [2]; 50 µg/mL in test [3]; 16 µg/mL in test [4]; 50 µg/mL in test [5]; 20 µg/mL in test [6]. The minimum inhibitory concentration (MIC) stood at 50 µg/mL in [7]; 18 µg/mL in test [8]; 50 µg/mL in [9]; 12 µg/mL in [15]; 12 µg/mL in [16].
For the molecule RWRLFKRIGIGRLLKRGLR [GK-3], the “inhibitory activity” value worked out at 13 µg/mL in [11], 25 µg/mL in test [13], 31 µg/mL in [14] and 21 µg/mL in test [17]. The “IC50 against normal fibroblasts” value in test [12] is above 100 µg/mL. Further, the MIC worked out at 0.5 µg/mL in test [1]; 3 µg/mL in [2]; 0.8 µg/mL in test [3]; 2 µg/mL in test [4]; 12 µg/mL in [5]; 1.6 µg/mL in [6]. In addition, the minimum inhibitory concentration (MIC) is 11 µg/mL in test [7]; 1.8 µg/mL in [8]; 1.2 µg/mL in test [9]; 6 µg/mL in [15]; 5 µg/mL in [16].
